Peptide text beside a SMILES is read from it.
Tests used:
mouse pancreatic islets = assay: Static incubation of isolated pancreatic islets, insulin secretion; format: cell-based
Description: Static incubation of isolated pancreatic islets. Isolation of mouse pancreatic islets was accomplished using collagenase digestion as previously described (Pontoglio et al., 1998). […] Triplicate groups of 5 islets were then incubated in borosilicate tubes containing 1 ml of KRB with the same concentration of inhibitor and various insulin secretagogues for one hour in a moving water bath at 37° C. The reaction was stopped by placing the tubes on ice and an aliquot of the buffer was removed for measurement of insulin levels. Control studies, in which the incubation mixture contained vehicle (0.1% DMSO) only, were performed using aliquots of the same batch of islets
Assay methods. Insulin concentrations were measured by a double antibody radioimmunoassay using a rat insulin standard. The intra-assay coefficient of variation for this technique is 7%. All samples were assayed in duplicate.

perifused mouse islets = assay: Insulin secretion from perifused islets; format: cell-based; conditions: 4 hr preincubation; 100 μM ALLM, 200 μM E-64-d
Description: Insulin secretion from perifused islets. Insulin secretion from perifused islets was measured using a modification of a previously described protocol (Pontoglio et al., 1998; Sreenan et al., 1998).

mouse islets [1] = assay: Measurement of islet [Ca2+]i (Fura-2); format: cell-based
Description: (§1) Measurement of islet [Ca^2+]i, and NAD(P)H. Islet [Ca^2+]i and NAD(P)H were measured as previously described (Pontoglio et al., 1998; Dukes et al., 1998).
Insulin secretory responses to glucose and most other secretagogues is mediated by a rise in intracellular free calcium ([Ca^2+]i). We therefore measured [Ca^2+]i responses to glucose, KIC and KCl using Fura-2 as the Ca^2+ indicator. In comparison to the responses from the control islets, the most prominent abnormality in [Ca^2+]i responses to glucose and KIC was a delay of the [Ca^2+]i responses (FIG. 21). The mean time interval between administration of 14 mM glucose and the point of half maximal response (T1/2.) was 120±14 seconds in control islets. […] There was no delay in the appearance of [Ca^2+]i response to KCl, nor was the magnitude of the response reduced.

β-cells = assay: Whole-cell patch-clamp calcium currents in β-cells; format: cell-based, mouse
Description: Isolation of pancreatic β-cells. Single β-cells were obtained from isolated islets dispersed by gentle trituration (120 strokes through a 200 μl pipette tip) in Ca^2+ and Mg^2+-free PBS containing […]. Cells were plated on glass coverslips and maintained in culture in RPMI containing 11.6 mM glucose for 48-96 hr.
Patch-clamp electrophysiology. Calcium current measurements were obtained in the whole-cell patch-clamp configuration. Calcium currents were activated by step depolarizations to either +10 or +20 mV for either 20 ms or 100 ms, from HP=−80 mV. All current records are corrected for leak and capacitance. The data was filtered at 2 kHz and then sampled every 100 μs. Pipette resistances were 1.5-2.5 MΩ. Series resistance was partially compensated (˜80%) using the compensation circuit of the Axopatch-1C amplifier.
Cells were incubated for 3-4 hr in RPMI at 37° C. in either 0.1% DMSO (control) or 100 μM ALLM and then transferred for a further 1-2 hr to KRB containing similar concentrations of DMSO or ALLM. For recording, cells were bathed in a solution containing (in mM): 145 NaCl, 2 KCl, 1 MgCl2, 2 glucose, 10 HEPES, 10 CaCl2, pH 7.3 (adjusted with NaOH) and either DMSO or ALLM. […]

mouse islets [2] = assay: Glucose utilization and oxidation rates in islets; format: cell-based
Description: Glucose utilization and oxidation rates. Glucose utilization and oxidation rates were measured as previously described (Dukes et al., 1998; Zhou et al., 1996) in mouse islets cultured as described above in the presence or absence of calpain inhibitors.

mouse islets [3] = assay: Islet NAD(P)H autofluorescence response; format: cell-based
Description: as §1

calpain = assay: Calpain activity in mouse pancreatic islets (Boc-Leu-Met-CMAC cleavage); format: cell-based
soleus muscle strips = assay: Glycogen synthesis rates in skeletal muscle; format: cell-based, rat; conditions: 100 μM ALLM or 200 μM E-64-d
Text: Glycogen synthesis rates in skeletal muscle.

islets = assay: Insulin content of islets after 48 h inhibitor exposure; format: cell-based, mouse; conditions: 48 hours treatment

CSCC[C@@H](C=O)NC(=O)[C@H](CC(C)C)NC(=O)[C@H](CC(C)C)NC(C)=O [ALLM, N-Ac-Leu-Leu-methioninal] (Ac-Leu-Leu-Met-aldehyde)
insulin secretory response to 30 mM KCl (mouse pancreatic islets; 100 μM ALLM, 4 hr, 2 mM glucose): did not however significantly increase
insulin secretory response to 100 μM carbachol (CCh) (mouse pancreatic islets; 100 μM ALLM, 4 hr, 8 mM glucose): did not however significantly increase
increase of insulin secretory response to 50 nM GLP-1 (mouse pancreatic islets; 100 μM ALLM, 8 mM glucose): 1.55±0.2 fold
insulin secretory response to 20 mM glucose after recovery (mouse pancreatic islets; 48-h treatment, then 2 days recovery without inhibitor): essentially normal insulin secretory response
effect on insulin secretion at 2 mM glucose (mouse pancreatic islets; 4 hr exposure, ALLM 250 μM, E-64-d 200 μM, 2 mM glucose): not observed
increase of insulin secretory response to 20 mM glucose (mouse pancreatic islets; 4 hr exposure, ALLM 250 μM, E-64-d 200 μM, 20 mM glucose, mean±SEM): 1.97±0.3 fold
inhibition of 20 mM glucose-stimulated insulin secretion (mouse pancreatic islets; 48 h, 100 μM ALLM (so in the source), 50 μM MDL28170): 88±9%
basal insulin secretion (2 mM glucose) vs control-treated islets (mouse pancreatic islets; 48 hours exposure): no significant difference
insulin secretory response to carbachol (mouse pancreatic islets; 48 h treated islets): attenuated
insulin secretory response to glyceraldehyde (mouse pancreatic islets; 48 h treated islets): responded normally
insulin secretory response to mastoparan (mouse pancreatic islets; 48 h treated islets): attenuated
insulin-secretory response to keto-isocaproic acid (KIC) (mouse pancreatic islets; 48 h treated islets): decreased
insulin secretory responses to glucose (summary statement of Example 8) (mouse pancreatic islets; isolated mouse islets, introductory summary, no conditions given): reduces insulin secretory responses
concentration at which inhibition of insulin secretion was achieved (dose response) (mouse pancreatic islets; long-term exposure, glucose stimulated insulin secretion): 25 µM
enhancement of insulin secretory response to 20 mM glucose in dynamic islet perifusion (perifused mouse islets): also observed
[Ca2+]i response to high glucose (mouse islets [1]; 4 hr preincubation, 14 mM glucose): not associated with increases in [Ca^2+]i
[Ca2+]i response to glucose ramp (2 to 26 mM over 48 mins) (mouse islets [1]; 48 h treated islets): diminished
[Ca2+]i responses to 30 mM KCl vs control (mouse islets [1]; 48 h treated islets): not different
integrated [Ca2+]i responses (area under the curves) to glucose and KIC vs control (mouse islets [1]; 48 h treated islets): significantly smaller
T1/2 of [Ca2+]i response to 14 mM glucose (time to half maximal response) (mouse islets [1]; 48 h treated islets, control 120±14 seconds): 5.32 ± 0.7 min
T1/2 of [Ca2+]i response to KIC (mouse islets [1]; 48 h treated islets, control 125±9): 4.18 ± 0.7 min
average peak calcium current density (β-cells; ALLM 100 μM pre-treated cells, n=15): 36.7±3.9 pA/pF
whole-cell calcium currents (β-cells; ALLM 100 μM pre-treated vs control cells): similar
rate of glucose utilization at basal glucose (mouse islets [2]; 2 mM glucose, 100 μM ALLM or 200 μM E-64-d, 4 h): 14.5±3.6 pmol/islet/hr
rate of glucose utilization at stimulatory glucose (mouse islets [2]; 20 mM glucose, 100 μM ALLM or 200 μM E-64-d, 4 h): 89.5±3.0 pmol/islet/hr
rate of basal glucose utilization and oxidation at 3.3 mM glucose (mouse islets [2]; 48 h treated islets): no significant changes
rates of glycolysis and glucose oxidation at stimulating concentrations of glucose (mouse islets [2]; 48 h treated islets vs controls): significantly reduced
glucose oxidation rate at basal glucose (mouse islets [2]; basal glucose, ALLM or E-64-d, 4 h): 6.0±0.7 pmol/islet/hr
glucose oxidation rate at stimulatory glucose (mouse islets [2]; stimulatory glucose, ALLM or E-64-d, 4 h): 39.5±4.1 pmol/islet/hr
NAD(P)H response to increase in glucose from 2 to 14 mM (mouse islets [3]; 100 μM ALLM or E-64-d, 4 hr preincubation): 2.7±0.4 fold increase
NAD(P)H responses to KIC vs control (mouse islets [3]; 48 h treated islets): significantly reduced
NAD(P)H responses to glucose vs control (mouse islets [3]; 48 h treated islets): comparable
area under the curve of rate of generation of fluorescent calpain product (calpain; 200 μM inhibitor, 4 hr incubation): 35±4 % of control values
residual calpain activity in intact islets (calpain; 48 h treatment, 100 μM ALLM or 200 μM E-64-d): 54±3 % of control treated islets
magnitude of insulin-induced increase in muscle glycogen synthesis (soleus muscle strips; insulin 6 nM): 0.13±0.03 nmol glucose/mg/hr
rate of muscle glycogen synthesis with insulin (soleus muscle strips; insulin 6 nM): 0.40±0.05 nmol glucose/mg/hr
rate of muscle glycogen synthesis without insulin (soleus muscle strips; no insulin): 0.27±0.03 nmol glucose/mg/hr
insulin content in islets vs control islets (islets): comparable

From US20060234276A1, “Methods of treatment of type 2 diabetes” (priority 1998, published 2006)
